Laboratory results reported in the supplement of paper PMC8967900.

How the values were obtained:
Assay in all cases: selective drug sensitivity score (sDSS, relative to normal bone marrow) (sDSS (score)); higher = more potent and effective on the cell line relative to normal bone marrow cells
Conditions in all cases: 72 h
MN-60 = system: MN-60
380 = system: 380
SUP-B15 = system: SUP-B15
PEER = system: PEER
MOLT-4 = system: MOLT-4
COG-LL-319h = system: COG-LL-319h
HPB-ALL = system: HPB-ALL
P12-ICHIKAWA = system: P12-ICHIKAWA
CCRF-HSB2 = system: CCRF-HSB2
COG-LL-402h = system: COG-LL-402h
KASUMI-9 = system: KASUMI-9
697 = system: 697
COG-LL-394h = system: COG-LL-394h
REH = system: REH
NALM-16 = system: NALM-16
COG-LL-332h = system: COG-LL-332h
DND-41 = system: DND-41
MHH-CALL-2 = system: MHH-CALL-2
TMD5 = system: TMD5
KASUMI-10 = system: KASUMI-10
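Further: ALL cell lines in 384-well plates, five doses spanning 10,000-fold, each plate scaled between vehicle and 100 µmol/L benzalkonium chloride controls, sDSS an adapted area-under-curve metric.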

| SMILES | selective drug sensitivity score (MN-60) | selective drug sensitivity score 380 | selective drug sensitivity score (SUP-B15) | selective drug sensitivity score (PEER) | selective drug sensitivity score (MOLT-4) | selective drug sensitivity score (COG-LL-319h) | selective drug sensitivity score (HPB-ALL) | selective drug sensitivity score (P12-ICHIKAWA) | selective drug sensitivity score (CCRF-HSB2) | selective drug sensitivity score (COG-LL-402h) | selective drug sensitivity score (KASUMI-9) | selective drug sensitivity score 697 | selective drug sensitivity score (COG-LL-394h) | selective drug sensitivity score (REH) | selective drug sensitivity score (NALM-16) | selective drug sensitivity score (COG-LL-332h) | selective drug sensitivity score (DND-41) | selective drug sensitivity score (MHH-CALL-2) | selective drug sensitivity score (TMD5) | selective drug sensitivity score (KASUMI-10) |
| --- | --- | --- | --- | --- | --- | --- | --- | --- | --- | --- | --- | --- | --- | --- | --- | --- | --- | --- | --- | --- |
| Nc1ncnc2c1nc(Cl)n2[C@@H]1O[C@H](CO)[C@@H](O)[C@H]1O [8-chloro-adenosine] (top concentration 50000 nM) | -2.8 | -6.3 | 7.3 | 0.5 | 3.3 | 4.3 | -4.8 | -2.4 | 3.6 | 3.1 | 2.4 | 4.1 | 5.1 | -0.6 | -3.1 | 0.9 | -3.9 | 2.4 | -2.1 | 7.5 |
| COc1ccc(S(=O)(=O)Nc2cccnc2Nc2ccc(O)cc2)cc1 [ABT-751] (top concentration 10000 nM) | 5.42 | 8.72 | 10.8 | 15.5 | 11.1 | 10.7 | 13.2 | 10.4 | 13 | 8.92 | 10.4 | 12.8 | 3.72 | 15.4 | 11.5 | 11.1 | 6.12 | 12.6 | 7.32 | 8.12 |
| CC1CCC(n2c3cnccc3c3cnc(Nc4ccc5c(n4)CCN(C(=O)CO)C5)nc32)CC1 (stereo not given) [AMG-925] (top concentration 1000 nM) | -0.66 | 2.44 | 11.7 | 5.54 | 2.34 | 6.44 | 5.84 | 3.84 | 1.94 | 6.14 | 8.24 | 11.4 | -0.66 | 3.44 | 6.34 | 4.34 | 6.14 | 4.94 | -0.66 | 9.54 |
| O=C(NC1CCNCC1)c1n[nH]cc1NC(=O)c1c(Cl)cccc1Cl [AT7519] (top concentration 10000 nM) | -11.4 | -4.86 | -4.56 | -3.56 | -7.66 | -4.26 | -10.8 | -8.66 | -3.46 | -3.66 | -3.66 | -2.46 | -1.06 | -2.16 | -8.16 | -5.06 | -5.66 | -2.06 | -4.16 | -2.76 |
| Cc1cc2c(C(C)C)c(O)c(O)c(C=O)c2c(O)c1-c1c(C)cc2c(C(C)C)c(O)c(O)c(C=O)c2c1O [AT-101] (top concentration 100000 nM) | 3.28 | -0.22 | 5.78 | 4.18 | 1.98 | 4.48 | 10.9 | 2.78 | 2.48 | 4.18 | 6.48 | 3.08 | 3.78 | 5.28 | 0.98 | 4.08 | 4.68 | 4.18 | 0.18 | 2.48 |
| N[C@@H]1CCCN(c2c(/C=C3\SC(=O)NC3=O)cccc2-c2ccccc2)C1 [AZD1208] (top concentration 10000 nM) | -1.8 | 14.8 | -4.4 | -2.7 | -4.4 | -4.4 | -4.4 | -4 | 6.5 | -4.4 | -1.7 | 1.2 | 1 | 5.5 | -3.2 | -2.9 | -1.3 | 3.7 | 3.1 | -4.4 |
| Cc1ncc(-c2ccnc(Nc3ccc(S(C)(=O)=O)cc3)n2)n1C(C)C [AZD-5438] (top concentration 10000 nM) | -7.96 | -7.56 | 9.74 | 3.04 | -5.46 | 8.54 | -5.06 | -0.36 | 1.34 | -0.46 | -0.26 | 0.94 | -5.86 | 1.54 | -6.16 | -0.16 | -2.06 | -1.06 | -5.96 | 6.04 |
| CCN1CCN(Cc2ccc(Nc3ncc(F)c(-c4cc(F)c5nc(C)n(C(C)C)c5c4)n3)nc2)CC1 [Abemaciclib] (top concentration 2500 nM) | -8.16 | -6.86 | 6.74 | -1.96 | -1.96 | 6.64 | -2.46 | -4.06 | -2.46 | 1.74 | 5.44 | 8.44 | -3.26 | -0.06 | -6.46 | -1.66 | 0.34 | -3.96 | -9.66 | -1.06 |
| Cn1ncc(Cl)c1-c1cc(C(=O)N[C@H](CN)Cc2cccc(F)c2)sc1Cl [Afuresertib] (top concentration 1000 nM) | -0.54 | 2.46 | 5.66 | -1.34 | 6.26 | 7.76 | 2.86 | -0.44 | 0.86 | 4.56 | 1.86 | 0.76 | -0.94 | 3.56 | 1.46 | 2.86 | -2.34 | 7.36 | -2.34 | -2.34 |
| O=C(Nc1cc(Oc2cc(F)c(NC(=O)C3(C(=O)Nc4ccc(F)cc4)CC3)cc2F)ccn1)C1CC1 [Altiratinib] (top concentration 10000 nM) | -4.86 | -0.86 | 6.64 | 9.24 | 0.24 | 2.84 | 3.54 | 0.34 | 8.14 | -2.16 | -0.16 | 4.24 | 1.84 | 3.84 | -2.56 | 3.84 | 3.74 | 3.74 | 3.24 | 8.84 |
